Test results: article PMC5129982, “Screen-identified selective inhibitor of lysine demethylase 5A blocks cancer cell growth and drug resistance” (Oncotarget, 2016)

Assays:
MDA-MB-231 cells = experiment: WST-1 proliferation assay, MDA-MB-231; format: cell-based, human; details: MDA-MB-231, 5 days of treatment
Method: (§1) WST-1 reagent from Roche Applied Sciences (11644807001) was used to measure cell number before drug addition and after 3 or 5 days of growth as described previously. Cells were seeded in 96-well plates at the following number of cells per well: HeLa (2000), MCF7 (2000), ZR-75-1 (1000), MCF10A (1000), MDA-MB-231(5000). DMSO was used at 0.1%. Relative absorbance was calculated by subtracting the average background (media only) signal, dividing by the average signal on day 0, and then dividing by the average day 5/day 0 ratio for the DMSO controls. Significance was calculated by unpaired, two-tailed student's t-test using GraphPad Prism 6.0 software.

[1] = tested on: H3K4 methylation in MCF10A cells; experiment: Western blot of global H3K4 methylation, MCF10A; format: cell-based, human; details: 72 hr treatment
Method: Cells were lysed as described previously. Histones were separated by centrifugation, resuspended in Laemmeli buffer, and sonicated. Protein concentration of cell lysates was measured by Bradford assay. Samples in Laemmeli buffer were boiled 10 minutes at 95°C and loaded onto 7% (whole cell lysates) or 18% (histones) SDS-PAGE gels. Membranes were blocked in 4% non-fat milk in Tris-buffered saline with 0.05% Tween (TBS-T) and incubated with primary antibodies in the same buffer or 5% bovine serum albumin in TBS-T overnight at 4°C. Membranes were incubated with secondary anti-rabbit or anti-mouse antibodies for one hour at room temperature. Blots were visualized by Thermo Scientific Pierce ECL Western Blotting Substrate (32106) or EMD Millipore Immobilon Western Chemiluminescent HRP Substrate (WBKLS0100) on film. Signal was quantified using ImageJ software.

HeLa cells [2] = experiment: WST-1 proliferation assay, HeLa; format: cell-based, human; details: after 3 days
Method: as §1

MCF7 cells = experiment: WST-1 proliferation assay, MCF7; format: cell-based, human; details: MCF7, after 3 days
Method: as §1

ZR-75-1 cells = experiment: WST-1 proliferation assay, ZR-75-1; format: cell-based, human; details: ZR-75-1, 5 days of treatment
Method: as §1

His-FLAG-KDM6A (UTX) = target: T1, His-FLAG-KDM6A (UTX) (Homo sapiens, UniProt O15550); experiment: AlphaScreen KDM6A demethylation assay; format: biochemical
T1 construct: Full-length FLAG-KDM5B, FLAG-KDM5C, and His-FLAG-KDM6A production was detailed previously; His (N); FLAG (N); made in house
T1 sequence (O15550 whole entry): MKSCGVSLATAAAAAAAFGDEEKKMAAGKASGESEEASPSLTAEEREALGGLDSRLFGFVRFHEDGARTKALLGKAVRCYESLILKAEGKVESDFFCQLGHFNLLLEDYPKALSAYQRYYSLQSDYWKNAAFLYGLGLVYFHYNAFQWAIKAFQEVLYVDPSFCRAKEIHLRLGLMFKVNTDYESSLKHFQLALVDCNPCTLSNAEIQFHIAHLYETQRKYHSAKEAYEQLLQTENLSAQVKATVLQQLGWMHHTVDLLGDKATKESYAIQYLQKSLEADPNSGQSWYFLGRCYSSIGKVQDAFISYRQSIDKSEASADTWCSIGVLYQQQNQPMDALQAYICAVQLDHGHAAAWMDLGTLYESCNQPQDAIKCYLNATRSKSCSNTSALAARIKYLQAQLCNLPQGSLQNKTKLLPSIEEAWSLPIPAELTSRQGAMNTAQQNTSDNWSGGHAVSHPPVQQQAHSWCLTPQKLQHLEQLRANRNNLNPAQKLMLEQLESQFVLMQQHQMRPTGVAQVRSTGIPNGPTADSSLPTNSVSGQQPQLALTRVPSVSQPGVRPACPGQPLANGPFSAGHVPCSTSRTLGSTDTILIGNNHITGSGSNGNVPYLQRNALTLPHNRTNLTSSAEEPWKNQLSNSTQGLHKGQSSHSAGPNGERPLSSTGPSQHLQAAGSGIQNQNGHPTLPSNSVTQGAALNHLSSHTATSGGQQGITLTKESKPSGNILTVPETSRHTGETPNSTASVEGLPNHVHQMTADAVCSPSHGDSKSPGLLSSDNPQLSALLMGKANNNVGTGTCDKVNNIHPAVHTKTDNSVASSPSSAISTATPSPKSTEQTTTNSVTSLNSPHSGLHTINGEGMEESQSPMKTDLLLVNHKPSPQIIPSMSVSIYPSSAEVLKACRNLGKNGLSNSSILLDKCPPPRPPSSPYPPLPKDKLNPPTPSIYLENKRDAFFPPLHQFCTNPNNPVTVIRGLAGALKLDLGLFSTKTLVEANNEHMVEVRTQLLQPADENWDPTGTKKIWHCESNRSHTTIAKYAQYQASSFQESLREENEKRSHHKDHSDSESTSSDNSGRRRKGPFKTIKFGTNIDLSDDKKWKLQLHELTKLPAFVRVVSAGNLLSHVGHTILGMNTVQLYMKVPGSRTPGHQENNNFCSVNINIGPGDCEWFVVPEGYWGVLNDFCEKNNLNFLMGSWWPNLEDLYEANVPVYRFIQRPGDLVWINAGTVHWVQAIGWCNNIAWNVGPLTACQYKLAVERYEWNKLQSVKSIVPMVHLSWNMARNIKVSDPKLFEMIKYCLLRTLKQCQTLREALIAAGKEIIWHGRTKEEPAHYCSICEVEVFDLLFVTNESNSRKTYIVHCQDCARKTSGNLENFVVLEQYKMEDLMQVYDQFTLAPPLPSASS
Method: (§2) Histone demethylase assays were performed as described previously, with the exception of all enzyme reactions containing 125 μM α-KG. Enzymes were used at the following approximate concentrations in validation experiments, chosen based on their activity in AlphaScreen assays: 19 nM FLAG-KDM5A, 15 nM FLAG-KDM5B, 6 nM FLAG-KDM5C, 29 nM His-FLAG-KDM6A, and 16 nM FLAG-KDM6B. 24 nM FLAG-KDM5A was used for Km determination experiments. Reactions were carried out for 1 hour, or were stopped by addition of 30 mM EDTA every 5 minutes for determining enzyme kinetics. Km values were calculated using the Michaelis-Menten non-linear regression analysis on GraphPad Prism 6.0 software. The concentration of DMSO in demethylation reactions was 0.05%. For reactions with catalase, catalase (Sigma C30) or an equal volume of dilution buffer was added to the peptide-containing buffer before addition of the demethylase. The final concentration of catalase in the reactions was 0.01 mg/ml.
(§3) The AlphaScreen general IgG (protein A) detection kit from PerkinElmer Life Sciences was used as described previously. The luminescence emission was recorded at 570 nm using the AlphaScreen optic module on a Pherastar (BMG Labtech) or Envision (PerkinElmer Life Sciences) microplate reader.

PC9 cells = experiment: Colony formation assay, PC9 (gefitinib tolerance); format: cell-based, human
Method: (§4) Cells were seeded in 6-well plates at low density: HeLa, MCF7, BT474, and PC9 cells at 1000, 2000, 2500, and 2000 cells/well respectively. Media containing the prescribed drugs or 0.1% DMSO was replaced every 3 days. Trastuzumab was used at 5 μg/ml. Gefitinib was used at 2 μM. YUKA1 was used at 50 or 100 μM. Doxycycline was used at 1 μg/ml for 3 days. After 7–42 days depending on the rate of cell growth, cells were fixed in 4% para-formaldehyde in phosphate-buffered saline for 10 minutes rocking at room temperature. They were incubated in 0.05% crystal violet in double-distilled water for 30 minutes rocking at room temperature, washed with water, and dried 24 hours before photographing. ColonyArea, a plugin for ImageJ software, was used for quantification. Unpaired, two-tailed student's t-test calculated using GraphPad Prism 6.0 software was used to determine significance.

[3] = target: T2, FLAG-KDM6B (1043-1682) (JMJD3) (Homo sapiens, UniProt O15054); experiment: AlphaScreen KDM6B demethylation assay; format: biochemical
T2 construct: FLAG-KDM6B (1043-1682) was purchased from BPS Bioscience (50115); FLAG (N); purchased BPS Bioscience 50115
T2 sequence (O15054 1043-1682 isoform O15054-1): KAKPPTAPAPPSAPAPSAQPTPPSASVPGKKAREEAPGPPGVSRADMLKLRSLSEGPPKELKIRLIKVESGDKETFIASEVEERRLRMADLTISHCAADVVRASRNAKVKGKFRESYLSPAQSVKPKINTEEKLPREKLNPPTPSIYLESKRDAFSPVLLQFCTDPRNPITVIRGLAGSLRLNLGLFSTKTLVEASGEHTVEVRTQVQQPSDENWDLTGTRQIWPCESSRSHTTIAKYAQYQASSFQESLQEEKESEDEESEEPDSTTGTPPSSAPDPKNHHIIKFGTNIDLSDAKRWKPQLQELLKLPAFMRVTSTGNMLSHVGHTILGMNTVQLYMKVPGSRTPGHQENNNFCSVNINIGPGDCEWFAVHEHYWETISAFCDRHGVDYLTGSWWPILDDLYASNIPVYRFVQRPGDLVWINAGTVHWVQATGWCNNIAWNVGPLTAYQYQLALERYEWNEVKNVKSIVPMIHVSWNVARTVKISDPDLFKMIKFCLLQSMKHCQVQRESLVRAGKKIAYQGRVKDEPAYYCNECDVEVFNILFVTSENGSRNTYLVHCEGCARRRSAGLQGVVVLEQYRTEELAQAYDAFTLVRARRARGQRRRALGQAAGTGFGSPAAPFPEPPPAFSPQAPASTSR
Method: as §2, §3

FLAG-KDM5B = target: T3, FLAG-KDM5B (Homo sapiens, UniProt Q9UGL1); experiment: AlphaScreen KDM5B demethylation assay; format: biochemical
T3 construct: Full-length FLAG-KDM5B, FLAG-KDM5C, and His-FLAG-KDM6A production was detailed previously; FLAG (N); made in house
T3 sequence (Q9UGL1 whole entry): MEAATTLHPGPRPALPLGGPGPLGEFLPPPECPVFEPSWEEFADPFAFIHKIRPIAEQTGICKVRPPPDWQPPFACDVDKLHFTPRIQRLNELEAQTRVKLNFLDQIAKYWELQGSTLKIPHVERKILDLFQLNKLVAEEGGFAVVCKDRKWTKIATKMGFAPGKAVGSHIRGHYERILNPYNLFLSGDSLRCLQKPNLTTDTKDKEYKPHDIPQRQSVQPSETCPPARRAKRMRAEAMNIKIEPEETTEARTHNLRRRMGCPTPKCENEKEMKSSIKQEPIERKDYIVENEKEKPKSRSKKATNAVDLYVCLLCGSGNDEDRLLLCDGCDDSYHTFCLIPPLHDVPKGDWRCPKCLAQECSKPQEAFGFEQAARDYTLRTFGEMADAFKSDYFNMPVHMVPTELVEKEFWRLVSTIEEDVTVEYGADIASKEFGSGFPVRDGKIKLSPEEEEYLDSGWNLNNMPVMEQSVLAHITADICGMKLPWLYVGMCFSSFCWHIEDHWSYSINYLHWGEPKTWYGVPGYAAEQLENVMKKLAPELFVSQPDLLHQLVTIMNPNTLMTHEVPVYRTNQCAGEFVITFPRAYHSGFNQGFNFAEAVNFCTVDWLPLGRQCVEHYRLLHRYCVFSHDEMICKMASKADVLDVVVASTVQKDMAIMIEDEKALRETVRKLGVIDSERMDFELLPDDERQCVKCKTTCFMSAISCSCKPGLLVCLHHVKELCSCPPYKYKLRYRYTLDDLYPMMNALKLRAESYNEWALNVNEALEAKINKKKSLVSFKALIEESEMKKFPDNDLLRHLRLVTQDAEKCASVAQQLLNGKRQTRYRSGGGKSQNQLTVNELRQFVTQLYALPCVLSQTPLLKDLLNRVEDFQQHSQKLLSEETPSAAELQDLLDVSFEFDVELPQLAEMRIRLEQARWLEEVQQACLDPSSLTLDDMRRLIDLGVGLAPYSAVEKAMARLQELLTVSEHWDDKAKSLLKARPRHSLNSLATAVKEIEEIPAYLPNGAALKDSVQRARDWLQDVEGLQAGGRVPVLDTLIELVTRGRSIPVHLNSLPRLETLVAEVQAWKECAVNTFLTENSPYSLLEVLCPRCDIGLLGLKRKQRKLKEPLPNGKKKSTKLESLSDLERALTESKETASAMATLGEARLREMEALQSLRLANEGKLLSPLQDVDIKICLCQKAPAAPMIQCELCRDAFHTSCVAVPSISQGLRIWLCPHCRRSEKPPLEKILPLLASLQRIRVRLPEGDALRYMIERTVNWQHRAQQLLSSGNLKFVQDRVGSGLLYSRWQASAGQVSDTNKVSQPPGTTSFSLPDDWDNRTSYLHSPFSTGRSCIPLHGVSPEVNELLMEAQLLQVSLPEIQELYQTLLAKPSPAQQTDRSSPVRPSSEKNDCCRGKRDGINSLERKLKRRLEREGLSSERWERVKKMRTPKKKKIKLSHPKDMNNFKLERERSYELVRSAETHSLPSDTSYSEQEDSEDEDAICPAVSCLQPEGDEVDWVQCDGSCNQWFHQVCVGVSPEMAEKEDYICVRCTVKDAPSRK
Method: as §2, §3

HeLa cells [4] = experiment: Colony formation assay, HeLa; format: cell-based, human; details: two-week treatment, 50 or 100 μM
Method: as §4

SMILES: C=CCOc1c(CNn2cnnc2S)cccc1OC [YUKA1, 4-([2-(allyloxy)-3-methoxybenzyl]amino)-4H-1,2,4-triazole-3-thiol]
- decrease in cell proliferation (MDA-MB-231 cells): 10–15%
- H3K4 methylation levels [1]: did not affect H3K4 methylation levels
- proliferation relative to DMSO-treated cells (HeLa cells [2]): less than half of DMSO-treated cells
- proliferation (MCF7 cells): not affected
- cell proliferation (ZR-75-1 cells): decreased cell proliferation
- IC50 (His-FLAG-KDM6A (UTX)): > 50 µM
- cell growth, compound alone (PC9 cells; PC9, 7 days): not significantly affected
- colony formation during long-term gefitinib treatment (PC9 cells; PC9, plus 2 μM gefitinib, 35 days): fewer YUKA1-treated cells formed colonies
- IC50 [3]: > 50 µM
- IC50 (FLAG-KDM5B; AlphaScreen): > 50 µM
- activity against KDM5B (FLAG-KDM5B; at 50 μM): no activity
- number of colonies formed compared to DMSO (HeLa cells [4]): significantly reduced
